From patent US4877727A, “Substrate for determining leucine aminopeptidase or gamma-glutamyltranspeptase activity” (Kyowa Medex Co., Ltd., priority 1984, dated 1989)
In brackets after ≈: the same amount, converted by molar mass.

Key:
Stability of pigment = format: physicochemical
[1] = Maximum wavelength of formed pigment; format: physicochemical
Description: 50 μl of 1 mM each free compound was added to 3 ml of 0.1M phosphate buffer containing 0.5 mg/ml EMSE and 1 U/ml laccase and the mixture was incubated at 37° C. for 5 minutes. The absorption of the reaction solution at λmax was measured. As a control, 5-aminosalicylic acid was used and the reaction of the compound with 2,6-xylenol was carried out in the presence of metaperiodate under strong alkaline conditions.

[2] = biological target: T1, γ-glutamyltranspeptidase (γ-GTP) (Homo sapiens, UniProt P19440); test: γ-GTP determination in serum (Example 3); format: biochemical; conditions: found with the compound as substrate; standard serum 235 mU/ml; 37° C., 5 minutes; wavelength of Table 2
T1 construct: from tissue; host or cells: serum
Description: In this example, 500 mg of compound Nos. 1, 3, 5, 7 and 9 each and 500 mg of glycylglycine were dissolved in 100 ml (pH=7.7) and 0.1M phosphate buffer. The resultant solutions were designated A-1, A-3, A-5, A-7 and A-9, respectively. 50 mg of 3-{N-(m-tolyl)-N-ethyl}amino-2-hydroxypropane sulfonic acid was dissolved in 100 ml of phosphate buffer solution to obtain solution B. 50 mg/ml sodium meta-periodate containing 1N-HCl solution was prepared as solution C.
6 ml of solution A-1, A-3, A-5, A-7 or A-9 was equally poured to 3 test tubes. The samples were incubated at 37° C. and to the solution was added […] of (a) serum sample (b) standard serum or (c) water. The mixtures were stirred and heated for 5 minutes. After 5 minutes had passed, 1 ml of solution B and 1 ml of solution C were added to each of the mixtures and the mixtures were incubated for 10 minutes after stirring. As the standard serum, a serum having 235 mU/ml of γ-GTP was used.
The γ-GTP activity of the serum sample can be calculated by the following equation. [formula]

Solubility of substrate = format: physicochemical; conditions: read-out: S: Solubility

T1 sequence (P19440 1-380 limits assumed): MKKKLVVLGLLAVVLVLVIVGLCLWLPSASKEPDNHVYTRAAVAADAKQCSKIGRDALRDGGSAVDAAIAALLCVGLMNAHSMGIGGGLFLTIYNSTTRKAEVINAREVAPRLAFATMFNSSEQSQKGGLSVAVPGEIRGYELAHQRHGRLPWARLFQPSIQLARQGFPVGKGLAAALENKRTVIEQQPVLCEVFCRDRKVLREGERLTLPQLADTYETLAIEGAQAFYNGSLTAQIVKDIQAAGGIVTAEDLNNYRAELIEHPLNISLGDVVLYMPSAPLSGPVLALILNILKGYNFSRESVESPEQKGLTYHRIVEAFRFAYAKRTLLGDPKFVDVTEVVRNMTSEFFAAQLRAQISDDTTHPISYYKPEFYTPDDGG
T1 sequence (P19440 381-569 limits assumed): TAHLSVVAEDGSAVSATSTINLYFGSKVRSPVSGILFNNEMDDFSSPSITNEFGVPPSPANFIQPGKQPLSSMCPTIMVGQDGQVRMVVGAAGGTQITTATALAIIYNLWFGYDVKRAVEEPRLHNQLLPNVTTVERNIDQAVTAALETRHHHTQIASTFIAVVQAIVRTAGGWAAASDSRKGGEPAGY

Structure (SMILES): CN(CCCS(=O)(=O)O)c1ccc(NC(=O)CC[C@H](N)C(=O)O)cc1 [compound 3]
- ST: Stability of pigment (Stability of pigment): > 96%
- λmax: Maximum wavelength [1]: 750 nm
- γ-GTP activity of the serum sample [2]: 228 mU/ml
- solubility (Solubility of substrate): 80 mg/mL (≈ 214 mM)

Structure (SMILES): N[C@@H](CCC(=O)Nc1ccc(N(CCCS(=O)(=O)O)CCCS(=O)(=O)O)cc1)C(=O)O [compound 1]
- ST: Stability of pigment (Stability of pigment): > 98%
- λmax: Maximum wavelength [1]: 745 nm
- γ-GTP activity of the serum sample [2]: 231 mU/ml
- solubility (Solubility of substrate): > 200 mg/mL
